Source: patent EP0745595A1, “3-(3-Aryloxyphenyl)-1-(substituted methyl)-s-triazine-2,4,6-oxo or thiotrione herbicidal agents” (American Cyanamid Company, priority 1995, dated 1996)

Experiments:
Type in all cases: in vivo
[1] = tested on: ABUTILON THEOPHRASTI, MEDIC.; assay: Postemergence herbicidal evaluation, ABUTH (Velvetleaf); details: rated four to five weeks after treatment, averaged
In short: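 Velvetleaf (Abutilon theophrasti) seedlings were raised in jiffy flats for about two weeks and then sprayed postemergence. The test compound was dispersed in a 50/50 acetone/water mixture containing 0.5% TWEEN®20 and applied through a nozzle operating at 40 psi. Plants were kept on greenhouse benches and rated 0-9 four to five weeks after treatment.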

[2] = tested on: ECHINOCHLOA CRUS-GALLI; assay: Preemergence evaluation in the presence of transplanted rice under flooded paddy conditions (Example 43), ECHCG (Barnyard Grass); parameters: key: visual rating on a 0-9 scale, compared with control; details: applied three days after sowing, 25 to 30 days after treatment
Protocol: (§1) Results of herbicide evaluation are expressed on a rating scale (0-9). The scale is based upon a visual observation of plant stand, vigor, malformation, size, chlorosis and overall plant appearance as compared with a control.
(§2) In this example, Deluvian paddy soil (Toyokawa paddy soil) is placed in plastic pots, 100cm^2 x 9 cm in depth. Water is added to the level of the soil surface in the pot and the mixture is paddled 3 cm in depth.
(§3) Pots are then variously sown with monocotyledenous weed seeds and tubers at 0-2 cm in soil depth, as well as transplanted rice plants at the 2.5 leaf stage. The rice plants are transplanted at about 3 cm soil depth. Water is then added to all of the pots to 3 cm deep and kept at a depth of 3 cm for the duration of the test. Test compounds are applied in the manner described in Example 42 three days after transplanting the rice plants and sowing the weed seeds and tubers. The pots are then placed on greenhouse benches and cared for in the conventional manner. Tests are examined at 25 to 30 days after treatment and rated according to the rating system provided in Example 40. The compounds evaluated are reported by compound number given in Example 40.

[3] = tested on: ORYZA SATIVA, L. CV. KOSHIHIKARI; assay: Post-transplant rice evaluation under flooded paddy conditions (Example 43), ORYSAK (Rice, Koshihikari); parameters: key: visual rating on a 0-9 scale, compared with control; details: applied three days after transplanting rice, 25 to 30 days after treatment
Protocol: as §1, §2, §3

[4] = tested on: IPOMOEA SPP.; assay: Postemergence herbicidal evaluation, IPOSS (Morningglory spp.); details: rated four to five weeks after treatment, averaged
In short: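 Seedlings of morningglory (Ipomoea spp.) were raised in jiffy flats for roughly two weeks. They were then sprayed postemergence through a nozzle at 40 psi with test compound dispersed in 50/50 acetone/water containing 0.5% TWEEN®20 surfactant. Plants were kept on greenhouse benches under standard care and visually rated 0-9 against controls four to five weeks after treatment.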

[5] = tested on: […]; assay: Preemergence evaluation in the presence of transplanted rice under flooded paddy conditions (Example 43), MOOVA (Monochoria); details: applied three days after sowing, 25 to 30 days after treatment
Protocol: as §1, §2, §3

[6] = tested on: SAGITTARIA PYGMAEA; assay: Preemergence evaluation in the presence of transplanted rice under flooded paddy conditions (Example 43), SAGPY (Arrowhead (Pygmaea)); parameters: key: visual rating on a 0-9 scale, compared with control; details: applied three days after sowing, 25 to 30 days after treatment
Protocol: as §1, §2, §3

[7] = tested on: CYPERUS DIFFORMIS; assay: Preemergence evaluation in the presence of transplanted rice under flooded paddy conditions (Example 43), CYPDI (Flatsedge, smallflower); parameters: key: visual rating on a 0-9 scale, compared with control; details: applied three days after sowing, 25 to 30 days after treatment
Protocol: as §1, §2, §3

[8] = tested on: SCIRPUS JUNCOIDES; assay: Preemergence evaluation in the presence of transplanted rice under flooded paddy conditions (Example 43), SCPJU (Bulrush, Japanese); parameters: key: visual rating on a 0-9 scale, compared with control; details: applied three days after sowing, 25 to 30 days after treatment
Protocol: as §1, §2, §3

[9] = tested on: ABUTILON THEOPHRASTI, MEDIC.; assay: Preemergence herbicidal evaluation, ABUTH (Velvetleaf); details: four to five weeks after treatment
In short: (§4)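 Injury scored visually (0–9; stand, vigor, malformation, size, chlorosis) versus untreated control, four to five weeks post-treatment. Application: aqueous acetone spray onto freshly planted soil cups, equivalent to about 0.125 to 0.50 kg/ha, plants then kept under standard greenhouse care.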

[10] = tested on: CYPERUS SEROTINUS, ROTTB.; assay: Preemergence weed control under flooded paddy conditions, CYPSE (Flatsedge); details: preemergence weeds, rated three to four weeks after treatment
In short: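 Seeds or propagules sown in top 0.5 cm of silt loam in undrained containers, flooded 1.5 to 3 cm throughout. Compounds in aqueous/acetone 50/50 v/v pipetted into flood water at about 0.5, 0.25, 0.125 and 0.063 kg/ha. Visual 0-9 rating versus control after three to four weeks in greenhouse.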

[11] = tested on: GALIUM APARINE; assay: Preemergence herbicidal evaluation, GALAP (Galium); details: four to five weeks after treatment
In short: as §4

[12] = tested on: ORYZA SATIVA, L. TEBONNET; assay: Rice tolerance to post-transplant applications under flooded paddy conditions, ORYSAT (Rice, Tebonnet); details: post-transplant rice, rated three to four weeks after treatment;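 note: applied to flooded soil surface three days after transplanting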
In short: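 Two ten-day-old Tebonnet rice seedlings were transplanted into silt loam and kept flooded 1.5 to 3 cm deep. Three days after transplanting, the flood surface received the compound in aqueous/acetone 50/50 v/v at about 0.5, 0.25, 0.125 or 0.063 kg/ha. Injury was rated visually on a 0-9 scale versus control after 3-4 weeks.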

[13] = tested on: CHENOPODIUM ALBUM, L.; assay: Postemergence herbicidal evaluation, CHEAL (Lambsquarters, Common); details: rated four to five weeks after treatment, averaged
In short: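 Seedlings of common lambsquarters (Chenopodium album) were raised in jiffy flats for roughly two weeks, then sprayed postemergence through a nozzle at 40 psi with test compound dispersed in 50/50 acetone/water containing 0.5% TWEEN®20 surfactant. Plants were kept on greenhouse benches under standard care and rated visually on a 0-9 scale versus controls.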

[14] = tested on: CHENOPODIUM ALBUM, L.; assay: Preemergence herbicidal evaluation, CHEAL (Lambsquarters, Common); details: four to five weeks after treatment
In short: as §4

[15] = tested on: IPOMOEA SPP.; assay: Preemergence herbicidal evaluation, IPOSS (Morningglory spp.); details: four to five weeks after treatment
In short: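 Seeds of morningglory (Ipomoea spp.) were mixed with potting soil and sown on roughly one inch of soil in pint cups for a preemergence herbicide test. The cups were put on greenhouse benches, watered, and maintained by standard greenhouse practice. Four to five weeks after treatment each cup was scored visually on a 0-9 scale against a control.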

CCOC(=O)Cn1c(=O)[nH]c(=O)n(-c2cc(Oc3ccc(C(F)(F)F)cc3Cl)ccc2[N+](=O)[O-])c1=O [Compound 5, Ethyl 3-{5-[(2-chloro-α,α,α-trifluoro-p-tolyl)oxy]-2-nitrophenyl}tetrahydro-2,4,6-trioxo-s-triazine-1(2H)-acetate]
ABUTH, herbicide rating (0-9) ([1]; Rate 0.125 kg/ha): 9.0 | ABUTH, herbicide rating (0-9) ([1]; Rate 0.250 kg/ha): 9.0 | ABUTH, herbicide rating (0-9) ([1]; Rate 0.500 kg/ha): 9.0 | Herbicidal effect rating, ECHCG ([2]; 0.032 kg/ha): 8.0 | Herbicidal effect rating, ECHCG ([2]; 0.063 kg/ha): 8.0 | Herbicidal effect rating, ECHCG ([2]; 0.125 kg/ha): 8.0 | Herbicidal effect rating, ECHCG ([2]; 0.250 kg/ha): 9.0 | Herbicidal effect rating, ORYSAK ([3]; 0.032 kg/ha): 0.0 | Herbicidal effect rating, ORYSAK ([3]; 0.063 kg/ha): 0.0 | Herbicidal effect rating, ORYSAK ([3]; 0.125 kg/ha): 2.0 | Herbicidal effect rating, ORYSAK ([3]; 0.250 kg/ha): 2.0 | IPOSS, herbicide rating (0-9) ([4]; Rate 0.125 kg/ha): 9.0 | IPOSS, herbicide rating (0-9) ([4]; Rate 0.250 kg/ha): 9.0 | IPOSS, herbicide rating (0-9) ([4]; Rate 0.500 kg/ha): 9.0 | Herbicidal effect rating, MOOVA ([5]; 0.032 kg/ha): 9.0 | Herbicidal effect rating, MOOVA ([5]; 0.063 kg/ha): 9.0 | Herbicidal effect rating, MOOVA ([5]; 0.125 kg/ha): 9.0 | Herbicidal effect rating, MOOVA ([5]; 0.250 kg/ha): 9.0 | Herbicidal effect rating, SAGPY ([6]; 0.032 kg/ha): 1.0 | Herbicidal effect rating, SAGPY ([6]; 0.063 kg/ha): 3.0 | Herbicidal effect rating, SAGPY ([6]; 0.125 kg/ha): 9.0 | Herbicidal effect rating, SAGPY ([6]; 0.250 kg/ha): 8.0 | Herbicidal effect rating, CYPDI ([7]; 0.032 kg/ha): 8.0 | Herbicidal effect rating, CYPDI ([7]; 0.063 kg/ha): 9.0 | Herbicidal effect rating, CYPDI ([7]; 0.125 kg/ha): 9.0 | Herbicidal effect rating, CYPDI ([7]; 0.250 kg/ha): 9.0 | Herbicidal effect rating, SCPJU ([8]; 0.032 kg/ha): 4.0 | Herbicidal effect rating, SCPJU ([8]; 0.063 kg/ha): 6.0 | Herbicidal effect rating, SCPJU ([8]; 0.125 kg/ha): 9.0 | Herbicidal effect rating, SCPJU ([8]; 0.250 kg/ha): 9.0 | ABUTH rating ([9]; Rate 0.125 kg/ha): 9.0 | ABUTH rating ([9]; Rate 0.250 kg/ha): 9.0 | ABUTH rating ([9]; Rate 0.500 kg/ha): 9.0 | CYPSE herbicidal rating ([10]; Rate 0.125 kg/ha): 9.0 | CYPSE herbicidal rating ([10]; Rate 0.250 kg/ha): 9.0 | CYPSE herbicidal rating ([10]; Rate 0.500 kg/ha): 9.0 | GALAP rating ([11]; Rate 0.125 kg/ha): 9.0 | GALAP rating ([11]; Rate 0.250 kg/ha): 9.0 | GALAP rating ([11]; Rate 0.500 kg/ha): 9.0 | ORYSAT herbicidal rating (rice tolerance) ([12]; Rate 0.063 kg/ha): 3.0 | ORYSAT herbicidal rating (rice tolerance) ([12]; Rate 0.125 kg/ha): 4.3 | ORYSAT herbicidal rating (rice tolerance) ([12]; Rate 0.250 kg/ha): 5.0 | ORYSAT herbicidal rating (rice tolerance) ([12]; Rate 0.500 kg/ha): 5.3 | CHEAL, herbicide rating (0-9) ([13]; Rate 0.125 kg/ha): 8.0 | CHEAL, herbicide rating (0-9) ([13]; Rate 0.250 kg/ha): 8.0 | CHEAL, herbicide rating (0-9) ([13]; Rate 0.500 kg/ha): 8.0 | CHEAL rating ([14]; Rate 0.125 kg/ha): 9.0 | CHEAL rating ([14]; Rate 0.250 kg/ha): 9.0 | CHEAL rating ([14]; Rate 0.500 kg/ha): 9.0 | IPOSS rating ([15]; Rate 0.125 kg/ha): 9.0 | IPOSS rating ([15]; Rate 0.250 kg/ha): 9.0 | IPOSS rating ([15]; Rate 0.500 kg/ha): 9.0
